# Assay results taken from patent US11000509B2, “Methods and compositions for daily ophthalmic administration of phentolamine to improve visual performance” (Ocuphire Pharma, Inc., priority 2013, dated 2021).
# Where a name gives a salt, the structure may show the parent alone.
# How the values were obtained:
# [1] = system: eyes of patients suffering from severe night vision difficulty; assay: Example 1 clinical study: mesopic contrast sensitivity with glare, Holladay Automated Contrast Sensitivity System; format: in vivo, humans; conditions: for percentage of eyes with at least a 50% improvement in contrast sensitivity relative to baseline: 0.5% or 1.0% (w/v) once daily, beginning with day 8
# Text: (§1) Sixty patients with normal day vision (i.e., 20/40 or better) but which suffer from severe night vision difficulty were enrolled in the study. During the first period of the study, patients were randomized into three groups. The groups received either placebo, 0.5% (w/v) phentolamine mesylate, or 1.0% (w/v) phentolamine mesylate once daily for 15 days. The patients were observed on days 1, 4, 8, and 15 prior to administering the ophthalmic solution of phentolamine mesylate and then observed again two hours after the ophthalmic solution of phentolamine mesylate was administered. During the second period of the study, all sixty patients were instructed to administer an ophthalmic solution of phentolamine mesylate (1% (w/v)) as needed, but no more than once daily to each eye. The ophthalmic solution of phentolamine mesylate contained: 1% (w/v) phentolamine mesylate, 4% (w/v) mannitol, 3 mM sodium acetate, and water. The placebo was a solution containing 4% (w/v) mannitol, 3 mM sodium acetate, and water.
# Patients in the study satisfied the following criteria: (1) 18-45 years of age and suffer from severe night vision difficulty, (2) 0.3 log improvement at two of five spatial frequencies (1.5, 3, 6, 12, and 18 cycles per degree) in at least one eye before and during illumination of the contralateral eye, using the Holladay Automated Contrast Sensitivity System test under mesopic room illumination with glare, and (3) photopic distance high-contrast visual acuity (corrected or uncorrected) of 20/40 or better in at least one eye.
# Patients were to meet with a clinician for evaluation on study days 1, 4, 8, 15, and a post-dosing follow-up evaluation three or more days after administering the last dose in the second period. When patients met with the clinician, the following observations were made by the clinician: (1) mesopic contrast sensitivity with and without glare using the Holladay Automated Contrast Sensitivity System test, (2) mesopic distance high-contrast visual acuity using E-ETDRS Acuity Testing, (3) mesopic distance low-contrast visual acuity using E-ETDRS Acuity Testing, (4) photopic distance high-contrast visual acuity using E-ETDRS Acuity Testing, and (5) eye redness using the Cornea and Contact Lens Research Unit (CCLRU) Redness Grading Scale developed by the School of Optometry, University of New South Wales, but that the grading scale was as follows: (0) none, (0.5) very slight, (1) slight, (2) moderate, and (3) severe.
# The primary efficacy endpoint is an increase of at least 0.3 log (50% or more improvement) in mesopic contrast sensitivity with glare at two or more frequencies at 1.5, 3, 6, 12, and 18 cycles per degree, measured with Holladay Automated Contrast Sensitivity System methodology.
# [2] = system: eyes of patients suffering from severe night vision difficulty; assay: Example 1 clinical study: eye redness, CCLRU Redness Grading Scale regraded 0, 0.5, 1, 2, 3; format: in vivo, humans
# Text: as §1, with “The patients were observed on days 1, 4, 8, and 15 prior to administering the ophthalmic solution of phentolamine mesylate and then observed again two hours after the ophthalmic solution of phentolamine mesylate was administered.” left out
# Patients were to meet with a clinician for evaluation on study days 1, 4, 8, 15, and a post-dosing follow-up evaluation three or more days after administering the last dose in the second period. […]
smiles,measurement,setting,value
"Cc1ccc(N(CC2=NCCN2)c2cccc(O)c2)cc1 [Phentolamine Mesylate, phentolamine mesylate]",percentage of eyes with at least a 50% improvement in contrast sensitivity relative to baseline,[1]; tested prior to that day's dose (FIG. 2),greater than 20%
same,percentage of eyes with at least a 50% improvement in contrast sensitivity relative to baseline,[1]; tested two hours after that day's dose (FIG. 1),greater than 20%
same,pharmacokinetic half-life,"[1]; from percentage of eyes with at least 50% improvement in contrast sensitivity after the last dose, second period, 1% (w/v) (FIG. 4A)",approximately two
same,"percentage of eyes with at least a 50% improvement in contrast sensitivity, change over time","[1]; measured prior to that day's administration, from day 15 to day 32 (FIG. 3)",increased
same,efficacy with repeated dosing (contrast sensitivity),[1]; once daily during the 15-day study period (FIGS. 1 and 2),no diminution in efficacy was observed
same,eye redness,[2]; immediately after administration (FIG. 5),increases
same,eye redness,"[2]; measured prior to administration on days 4, 8, and 15 (FIG. 5)",returns to baseline
